For one compound, inhibition results are on record in paper PMC7180948, “New Insights into 4-Anilinoquinazolines as Inhibitors of Cardiac Troponin I–Interacting Kinase (TNNi3K)” (Molecules, 2020).

Holding throughout (assay): biochemical
Common to all, as to set-up: KINOMEscan competition binding panel (Eurofins DiscoverX), single concentration, percent inhibition
Conditions in all cases: read-out: 15 at 1 µM % inhibition

Test [1] addresses T1, RSK4(Kin.Dom.1-N-terminal) (Homo sapiens, UniProt Q9UK32).
T1 construct: gene RPS6KA6; Kin.Dom.1-N-terminal
The gist of the method:
(§1)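 Kinome-wide profiling (KINOMEscan, >400 human kinases) was run at 1 µM compound.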

Test [2] has as its target RET(M918T) (Homo sapiens, UniProt P07949, M918T). The gist of the method: as §1
Test [3] concerns the target DYRK1A (Homo sapiens, UniProt Q13627). The gist of the method: as §1
For test [4], the target named is LCK (Homo sapiens, UniProt P06239). The gist of the method:
as §1

For test [5], the target named is NEK10 (Homo sapiens, UniProt Q6ZWH5). The gist of the method:
as §1

In test [6] the target is PIK3CA(C420R) (Homo sapiens, UniProt P42336, C420R). The gist of the method:
as §1

Test [7] concerns the target FGFR1 (Homo sapiens, UniProt P11362). Summed up:
as §1

For test [8], the target named is PRKG2 (Homo sapiens, UniProt Q13237). Summed up:
as §1

Test [9] addresses T2, ERK1 (Homo sapiens, UniProt P27361).
T2 construct: gene MAPK3
Summed up:
as §1

The target of test [10] is T3, NIM1 (Homo sapiens, UniProt Q8IY84).
T3 construct: gene NIM1K
The gist of the method:
as §1

Test [11] has as its target SNRK (Homo sapiens, UniProt Q9NRH2). The gist of the method: as §1
Test [12] addresses CDKL1 (Homo sapiens, UniProt Q00532). Summed up: as §1
Test [13] deals with AXL (Homo sapiens, UniProt P30530). The gist of the method: as §1
Test [14] addresses FLT3(R834Q) (Homo sapiens, UniProt P36888, R834Q). Summed up: as §1
Test [15] concerns the target FLT3(ITD,D835V) (Homo sapiens, UniProt P36888, D835V/ITD). Summed up:
as §1

Test [16] addresses T4, LZK (Homo sapiens, UniProt O43283).
T4 construct: gene MAP3K13
Summed up: as §1

Test [17] deals with MYLK (Homo sapiens, UniProt Q15746). Summed up: as §1
For test [18], the target named is KIT(V559D,T670I) (Homo sapiens, UniProt P10721, T670I/V559D). Summed up:
as §1

Test [19] concerns the target LRRK2 (Homo sapiens, UniProt Q5S007). Summed up:
as §1

The target in test [20] is PAK6 (Homo sapiens, UniProt Q9NQU5). Summed up:
as §1

The target in test [21] is T5, NIK (Homo sapiens, UniProt Q99558).
T5 construct: gene MAP3K14
Summed up: as §1

In test [22] the target is T6, ERK3 (Homo sapiens, UniProt Q16659).
T6 construct: gene MAPK6
The gist of the method:
as §1

The target of test [23] is PIP5K1A (Homo sapiens, UniProt Q99755). The gist of the method:
as §1

Test [24] deals with T7, DLK (Homo sapiens, UniProt Q12852).
T7 construct: gene MAP3K12
Summed up:
as §1

T4 sequence (O43283 whole entry): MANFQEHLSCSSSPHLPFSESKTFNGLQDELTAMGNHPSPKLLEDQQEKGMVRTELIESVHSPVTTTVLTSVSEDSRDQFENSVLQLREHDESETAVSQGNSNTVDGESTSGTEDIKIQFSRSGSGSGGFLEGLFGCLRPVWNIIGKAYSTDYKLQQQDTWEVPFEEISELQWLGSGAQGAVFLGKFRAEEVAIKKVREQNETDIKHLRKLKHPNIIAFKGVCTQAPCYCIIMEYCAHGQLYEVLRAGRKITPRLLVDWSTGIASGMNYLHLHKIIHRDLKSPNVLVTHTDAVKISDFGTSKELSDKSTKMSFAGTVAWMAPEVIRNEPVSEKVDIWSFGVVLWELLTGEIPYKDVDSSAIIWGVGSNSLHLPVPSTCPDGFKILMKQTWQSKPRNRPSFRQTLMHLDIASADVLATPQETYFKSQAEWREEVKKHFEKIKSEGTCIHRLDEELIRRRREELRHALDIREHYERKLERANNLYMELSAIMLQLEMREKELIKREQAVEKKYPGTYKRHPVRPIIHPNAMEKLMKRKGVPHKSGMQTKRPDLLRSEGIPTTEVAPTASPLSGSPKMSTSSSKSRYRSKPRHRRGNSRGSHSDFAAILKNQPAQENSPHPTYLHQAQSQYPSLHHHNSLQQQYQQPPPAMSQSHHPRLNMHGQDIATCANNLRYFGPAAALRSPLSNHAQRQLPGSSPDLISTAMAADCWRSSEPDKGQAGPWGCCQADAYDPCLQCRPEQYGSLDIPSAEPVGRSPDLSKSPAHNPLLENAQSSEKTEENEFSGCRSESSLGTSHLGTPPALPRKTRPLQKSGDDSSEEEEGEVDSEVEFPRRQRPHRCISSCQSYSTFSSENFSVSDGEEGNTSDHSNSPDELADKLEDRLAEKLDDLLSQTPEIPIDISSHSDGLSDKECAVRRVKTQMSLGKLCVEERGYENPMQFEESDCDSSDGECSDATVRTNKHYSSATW
T2 sequence (P27361 whole entry): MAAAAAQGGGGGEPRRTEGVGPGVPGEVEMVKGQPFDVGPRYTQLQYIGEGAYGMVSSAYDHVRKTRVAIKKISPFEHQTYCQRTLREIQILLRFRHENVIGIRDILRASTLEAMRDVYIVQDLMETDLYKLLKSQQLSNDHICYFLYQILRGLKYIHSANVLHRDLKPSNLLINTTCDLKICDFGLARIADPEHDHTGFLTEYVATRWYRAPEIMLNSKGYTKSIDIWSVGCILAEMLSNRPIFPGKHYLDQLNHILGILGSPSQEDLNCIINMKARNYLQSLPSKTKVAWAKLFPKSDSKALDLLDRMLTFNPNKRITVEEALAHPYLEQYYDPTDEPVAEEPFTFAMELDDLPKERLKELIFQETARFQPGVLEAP
Sequence of KIT(V559D,T670I) (P10721 whole entry V559D/T670I): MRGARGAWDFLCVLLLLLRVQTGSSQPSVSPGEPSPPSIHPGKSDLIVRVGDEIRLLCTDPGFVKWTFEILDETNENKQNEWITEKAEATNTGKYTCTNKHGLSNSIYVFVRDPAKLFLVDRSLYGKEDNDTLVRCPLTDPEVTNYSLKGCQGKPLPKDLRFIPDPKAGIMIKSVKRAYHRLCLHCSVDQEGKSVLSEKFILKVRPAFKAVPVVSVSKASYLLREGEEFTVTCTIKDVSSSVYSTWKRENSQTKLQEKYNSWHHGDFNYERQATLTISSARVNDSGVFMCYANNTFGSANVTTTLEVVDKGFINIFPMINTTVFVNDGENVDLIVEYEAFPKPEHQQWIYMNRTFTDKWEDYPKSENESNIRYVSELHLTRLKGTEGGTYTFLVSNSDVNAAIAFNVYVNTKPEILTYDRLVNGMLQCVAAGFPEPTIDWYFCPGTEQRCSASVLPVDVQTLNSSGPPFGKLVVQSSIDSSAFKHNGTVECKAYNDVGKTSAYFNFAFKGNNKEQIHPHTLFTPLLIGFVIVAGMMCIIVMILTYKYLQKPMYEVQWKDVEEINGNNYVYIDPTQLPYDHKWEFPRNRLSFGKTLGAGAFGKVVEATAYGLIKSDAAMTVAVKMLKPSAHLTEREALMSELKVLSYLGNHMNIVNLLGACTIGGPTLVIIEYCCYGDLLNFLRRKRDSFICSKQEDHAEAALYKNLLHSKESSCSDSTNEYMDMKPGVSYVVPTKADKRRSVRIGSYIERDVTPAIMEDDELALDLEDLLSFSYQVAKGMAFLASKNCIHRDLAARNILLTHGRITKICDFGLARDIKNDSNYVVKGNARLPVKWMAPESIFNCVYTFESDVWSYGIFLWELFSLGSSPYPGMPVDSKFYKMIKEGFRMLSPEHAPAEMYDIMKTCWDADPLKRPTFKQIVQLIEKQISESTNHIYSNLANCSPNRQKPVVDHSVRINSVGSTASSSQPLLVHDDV
Sequence of PAK6 (Q9NQU5 whole entry): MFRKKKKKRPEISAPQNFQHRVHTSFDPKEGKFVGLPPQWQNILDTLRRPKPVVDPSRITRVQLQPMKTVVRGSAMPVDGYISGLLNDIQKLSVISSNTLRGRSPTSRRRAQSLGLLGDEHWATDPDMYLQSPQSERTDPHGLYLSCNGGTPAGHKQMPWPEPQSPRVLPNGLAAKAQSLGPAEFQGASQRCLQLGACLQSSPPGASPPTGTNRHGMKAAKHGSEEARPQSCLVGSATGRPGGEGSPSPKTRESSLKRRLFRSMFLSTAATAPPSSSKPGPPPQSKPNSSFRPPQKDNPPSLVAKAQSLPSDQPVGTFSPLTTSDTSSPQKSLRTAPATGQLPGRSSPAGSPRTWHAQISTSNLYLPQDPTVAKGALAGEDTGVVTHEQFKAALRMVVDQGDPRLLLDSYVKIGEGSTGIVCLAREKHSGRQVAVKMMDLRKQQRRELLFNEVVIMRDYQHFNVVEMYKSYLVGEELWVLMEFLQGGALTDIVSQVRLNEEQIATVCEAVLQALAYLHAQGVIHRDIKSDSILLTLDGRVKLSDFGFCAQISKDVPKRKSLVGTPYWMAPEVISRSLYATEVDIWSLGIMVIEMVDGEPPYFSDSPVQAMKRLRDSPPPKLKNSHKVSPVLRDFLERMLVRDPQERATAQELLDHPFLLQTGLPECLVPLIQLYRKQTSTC
Sequence of FGFR1 (P11362 whole entry): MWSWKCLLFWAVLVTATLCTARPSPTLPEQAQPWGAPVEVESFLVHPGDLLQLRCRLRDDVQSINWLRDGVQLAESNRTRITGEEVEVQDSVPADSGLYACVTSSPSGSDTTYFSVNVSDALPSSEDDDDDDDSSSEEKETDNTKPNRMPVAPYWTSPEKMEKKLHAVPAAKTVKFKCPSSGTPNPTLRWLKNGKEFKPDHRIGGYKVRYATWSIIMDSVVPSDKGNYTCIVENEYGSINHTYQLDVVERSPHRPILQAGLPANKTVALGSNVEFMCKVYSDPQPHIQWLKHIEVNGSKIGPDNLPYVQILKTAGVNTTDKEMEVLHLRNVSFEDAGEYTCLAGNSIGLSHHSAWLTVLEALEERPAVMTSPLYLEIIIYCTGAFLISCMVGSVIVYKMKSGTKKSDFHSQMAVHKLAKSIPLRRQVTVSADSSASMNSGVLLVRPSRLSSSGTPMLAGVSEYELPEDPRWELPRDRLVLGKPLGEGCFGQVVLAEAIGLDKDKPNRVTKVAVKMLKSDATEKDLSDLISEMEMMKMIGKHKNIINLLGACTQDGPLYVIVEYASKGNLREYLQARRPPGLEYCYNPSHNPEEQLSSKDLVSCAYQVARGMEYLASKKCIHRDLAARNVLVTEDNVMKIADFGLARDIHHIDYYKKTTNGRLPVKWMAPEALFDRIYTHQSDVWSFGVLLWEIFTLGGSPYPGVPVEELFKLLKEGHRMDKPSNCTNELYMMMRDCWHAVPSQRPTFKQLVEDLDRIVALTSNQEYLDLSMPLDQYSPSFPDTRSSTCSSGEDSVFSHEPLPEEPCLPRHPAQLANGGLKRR
Sequence of PIP5K1A (Q99755 whole entry): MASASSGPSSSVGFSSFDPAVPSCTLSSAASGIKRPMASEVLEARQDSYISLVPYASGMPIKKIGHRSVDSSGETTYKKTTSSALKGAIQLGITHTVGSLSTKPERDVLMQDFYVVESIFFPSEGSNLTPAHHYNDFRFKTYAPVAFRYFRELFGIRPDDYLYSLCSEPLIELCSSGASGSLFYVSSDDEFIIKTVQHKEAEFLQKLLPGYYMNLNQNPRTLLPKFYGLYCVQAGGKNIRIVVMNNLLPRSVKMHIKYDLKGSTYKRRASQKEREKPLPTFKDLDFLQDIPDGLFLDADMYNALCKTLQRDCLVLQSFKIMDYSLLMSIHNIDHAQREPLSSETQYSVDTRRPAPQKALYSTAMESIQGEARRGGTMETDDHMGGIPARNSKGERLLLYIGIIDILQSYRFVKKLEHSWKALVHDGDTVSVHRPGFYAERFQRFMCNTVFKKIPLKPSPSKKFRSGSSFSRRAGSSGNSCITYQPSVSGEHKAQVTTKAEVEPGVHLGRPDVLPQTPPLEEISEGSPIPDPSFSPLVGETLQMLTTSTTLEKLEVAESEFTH
Sequence of CDKL1 (Q00532 whole entry): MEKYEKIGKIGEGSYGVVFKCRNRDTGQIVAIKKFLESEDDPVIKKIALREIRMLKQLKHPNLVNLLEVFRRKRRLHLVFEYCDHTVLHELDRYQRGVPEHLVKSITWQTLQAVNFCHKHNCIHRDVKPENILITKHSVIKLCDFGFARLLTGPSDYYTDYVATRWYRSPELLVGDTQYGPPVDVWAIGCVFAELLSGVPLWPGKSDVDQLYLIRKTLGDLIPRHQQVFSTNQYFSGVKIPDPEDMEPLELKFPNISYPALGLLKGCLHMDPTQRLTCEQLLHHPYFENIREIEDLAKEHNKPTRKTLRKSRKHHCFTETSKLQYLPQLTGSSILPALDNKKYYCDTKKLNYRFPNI

In the case of `CNS(=O)(=O)c1ccc(N(C)C)c(Nc2nc(C)nc3cc(OC)c(OC)cc23)c1` [compound 15, 3-((6,7-dimethoxy-2-methylquinazolin-4-yl)amino)-4-(dimethylamino)-N-methylbenzenesulfonamide], the inhibition at 1 µM was 30% in test [1]; 0% in [2]; 15% in [3]; 0% in [4]; 0% in [5]; 11% in test [6]. Further, the inhibition at 1 µM was 10% in [7]; 21% in [8]; 0% in test [9]; 27% in test [10]; 13% in [11]; 2% in [12]. The inhibition at 1 µM in [13] was 9%; in test [14] it was 32%; in test [15], 26%; in [16] it was 16%; in [17], 0%; in test [18], 0%. Moreover, the inhibition at 1 µM was 0% in test [19]; 3% in test [20]; 12% in [21]; 18% in test [22]; 22% in [23]; 12% in [24].
